Assay results published in PMC4669708 (Cell Death & Disease, 2015).

Key:
Experiment in all cases: c-ponatinib pulldown LC-MS/MS
Assay type in all cases: binding
ABL2 = ABL2 (Homo sapiens, UniProt P42684)
Experimental: (§1) Drug-affinity matrices were prepared as described previously.[51] In brief, 25 nmol of c-ponatinib were immobilized on 50 μl NHS-activated Sepharose 4 Fast Flow beads (GE Healthcare Bio-Sciences AB, Uppsala, Sweden). 10 mg whole cell lysate was used as protein input per replicate. Affinity chromatography and elution were performed in duplicate. After elution, the enriched proteins were reduced with dithiothreitol (DTT) and cysteine residues were alkylated by incubation with iodoacetamide. The samples were digested with modified porcine trypsin (Promega). Five percent of the digested eluates were purified and concentrated by C18 reversed-phase material. Subsequently, samples were analyzed in duplicates by gel-free one-dimensional LCMS.
(§2) Precursor and MS/MS peaks were extracted from the RAW files and saved in the MGF format using msconvert tool (ProteoWizard Library v2.1.2708, www.proteowizard.sourceforge.net) for subsequent protein identification. An initial database search was performed with broader mass tolerance and conservative score threshold to re-calibrate the mass lists for optimal final protein identification. For the initial protein database search, Mascot (www.matrixscience.com, v2.3.02) was used. Error tolerances on the precursor and fragment ions were ±10 p.p.m. and ±0.6 Da, respectively, and the database search limited to fully-tryptic peptides with maximum one missed cleavage, carbamidomethyl cysteine and methionine oxidation set as fixed and variable modifications, respectively. The Mascot peptide ion score threshold was set to 30, and at least three peptide identifications per protein were required. Searches were performed against the human UniProtKB/SwissProt database (www.uniprot.org release 2013.01) including all protein isoforms. The initial peptide identifications were used to deduce independent linear transformations for precursor and fragment masses that would minimize the mean square deviation of measured masses from theoretical. Re-calibrated mass list files were searched against the same human protein database by a combination of Mascot and Phenyx (GeneBio SA, Geneva, Switzerland; version 2.5.14) search engines using narrower mass tolerances (±4 p.p.m. and ±0.3 Da). One missed tryptic cleavage site was allowed. Carbamidomethyl cysteine was set as a fixed modification and oxidized methionine was set as a variable modification. To validate the proteins, Mascot and Phenyx output files were processed by internally developed parsers. Proteins with ≥2 unique peptides above a score T1, or with a single peptide above a score T2 were selected as unambiguous identifications. Additional peptides for these validated proteins with score >T3 were also accepted. For Mascot searches, the following thresholds were used: T1=14, T2=40 and T3=10; Phenyx thresholds were set to 4.2, 4.75 and 3.5, respectively (P-value<10^−3). The validated proteins retrieved by the two algorithms were merged, any spectral conflicts discarded and grouped according to shared peptides. A false discovery rate of <1% for protein identifications and <0.1% for peptides (including the ones exported with lower scores) was determined by applying the same procedure against a database of reversed protein sequences. […] In addition to Mascot protein scores that were proposed as an estimate of protein abundance by the original algorithm, the modified version also included Phenyx protein scores and spectral counts. The algorithm first estimated three measure-specific P-values for each putative interaction, and, in contrast to,[69] P-value calculation utilized the quantiles of the measurements rather than the original data. The Fisher's method was used to combine the three resulting P-values into a single P-value for drug–protein interaction specificity. We have also correlated interaction P-values with the magnitude of competition effect represented by the fold reduction of spectral counts on free compound competition. […]

LCK = LCK (Homo sapiens, UniProt P06239)
Chain of LCK (P06239 whole entry): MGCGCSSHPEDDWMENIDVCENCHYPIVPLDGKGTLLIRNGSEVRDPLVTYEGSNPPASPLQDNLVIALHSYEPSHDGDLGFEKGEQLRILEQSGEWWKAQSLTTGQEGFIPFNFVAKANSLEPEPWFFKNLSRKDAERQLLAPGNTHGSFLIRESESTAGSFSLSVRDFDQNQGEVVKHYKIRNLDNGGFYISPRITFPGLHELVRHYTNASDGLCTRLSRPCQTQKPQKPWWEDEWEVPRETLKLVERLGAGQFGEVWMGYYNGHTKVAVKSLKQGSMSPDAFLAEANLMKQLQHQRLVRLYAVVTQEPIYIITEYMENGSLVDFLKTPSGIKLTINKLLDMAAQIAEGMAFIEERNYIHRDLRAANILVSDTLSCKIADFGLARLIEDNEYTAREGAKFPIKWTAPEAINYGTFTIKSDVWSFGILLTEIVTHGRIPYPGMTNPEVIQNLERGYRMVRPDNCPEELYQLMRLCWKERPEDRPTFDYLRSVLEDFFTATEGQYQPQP
Experimental: as §1, §2

HSPA8 = HSPA8 (Homo sapiens, UniProt P11142)
Chain of HSPA8 (P11142 whole entry): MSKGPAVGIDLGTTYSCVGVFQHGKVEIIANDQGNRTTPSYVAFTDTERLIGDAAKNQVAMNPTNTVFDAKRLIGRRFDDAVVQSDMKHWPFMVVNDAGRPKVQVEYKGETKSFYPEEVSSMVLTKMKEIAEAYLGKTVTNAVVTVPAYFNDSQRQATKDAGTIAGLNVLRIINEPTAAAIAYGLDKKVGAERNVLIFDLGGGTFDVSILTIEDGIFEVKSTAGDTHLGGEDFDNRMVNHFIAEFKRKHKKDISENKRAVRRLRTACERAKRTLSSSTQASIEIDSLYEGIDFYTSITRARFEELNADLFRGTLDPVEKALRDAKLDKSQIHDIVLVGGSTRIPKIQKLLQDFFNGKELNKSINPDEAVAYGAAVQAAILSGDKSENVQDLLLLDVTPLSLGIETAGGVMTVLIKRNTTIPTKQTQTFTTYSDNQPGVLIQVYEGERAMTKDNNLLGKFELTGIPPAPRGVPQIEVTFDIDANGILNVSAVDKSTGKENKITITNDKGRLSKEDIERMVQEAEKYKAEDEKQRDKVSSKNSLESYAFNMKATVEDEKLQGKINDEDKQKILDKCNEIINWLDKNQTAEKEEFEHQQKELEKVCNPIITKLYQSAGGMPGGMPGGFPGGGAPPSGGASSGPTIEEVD
Experimental: as §1, §2

MAPK14 = MAPK14 (Homo sapiens, UniProt Q16539)
Chain of MAPK14 (Q16539 whole entry): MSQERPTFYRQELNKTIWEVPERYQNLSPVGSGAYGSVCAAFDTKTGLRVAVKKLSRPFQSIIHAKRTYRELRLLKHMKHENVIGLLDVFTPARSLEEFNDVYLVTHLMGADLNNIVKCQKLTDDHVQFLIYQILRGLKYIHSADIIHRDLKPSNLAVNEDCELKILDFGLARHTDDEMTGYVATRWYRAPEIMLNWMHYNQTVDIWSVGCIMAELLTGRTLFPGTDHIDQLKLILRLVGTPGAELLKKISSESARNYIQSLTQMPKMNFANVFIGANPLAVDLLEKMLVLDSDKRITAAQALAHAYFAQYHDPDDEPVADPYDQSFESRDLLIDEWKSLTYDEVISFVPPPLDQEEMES
Experimental: as §1, §2

MINK1 = MINK1 (Homo sapiens, UniProt Q8N4C8)
Experimental: as §1, §2

YWHAB = target: T1, YWHAB (Homo sapiens, UniProt P31946)
T1 sequence (P31946 1-246): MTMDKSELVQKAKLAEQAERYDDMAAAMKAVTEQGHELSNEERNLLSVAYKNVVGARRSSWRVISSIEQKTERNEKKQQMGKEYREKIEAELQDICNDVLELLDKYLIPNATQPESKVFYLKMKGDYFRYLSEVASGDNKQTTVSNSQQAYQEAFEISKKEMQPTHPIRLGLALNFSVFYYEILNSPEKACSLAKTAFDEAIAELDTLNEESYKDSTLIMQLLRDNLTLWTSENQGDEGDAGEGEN
Experimental: as §1, §2

UNC119B = UNC119B (Homo sapiens, UniProt A6NIH7)
Chain of UNC119B (A6NIH7 whole entry): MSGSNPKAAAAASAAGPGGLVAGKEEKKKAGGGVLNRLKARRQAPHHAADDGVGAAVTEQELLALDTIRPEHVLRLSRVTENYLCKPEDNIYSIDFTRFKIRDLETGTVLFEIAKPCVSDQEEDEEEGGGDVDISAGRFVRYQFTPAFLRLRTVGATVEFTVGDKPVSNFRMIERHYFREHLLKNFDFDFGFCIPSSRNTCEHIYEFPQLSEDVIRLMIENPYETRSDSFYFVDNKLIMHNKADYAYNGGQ
Experimental: as §1, §2

PTK2B = PTK2B (Homo sapiens, UniProt Q14289)
Chain of PTK2B (Q14289 whole entry): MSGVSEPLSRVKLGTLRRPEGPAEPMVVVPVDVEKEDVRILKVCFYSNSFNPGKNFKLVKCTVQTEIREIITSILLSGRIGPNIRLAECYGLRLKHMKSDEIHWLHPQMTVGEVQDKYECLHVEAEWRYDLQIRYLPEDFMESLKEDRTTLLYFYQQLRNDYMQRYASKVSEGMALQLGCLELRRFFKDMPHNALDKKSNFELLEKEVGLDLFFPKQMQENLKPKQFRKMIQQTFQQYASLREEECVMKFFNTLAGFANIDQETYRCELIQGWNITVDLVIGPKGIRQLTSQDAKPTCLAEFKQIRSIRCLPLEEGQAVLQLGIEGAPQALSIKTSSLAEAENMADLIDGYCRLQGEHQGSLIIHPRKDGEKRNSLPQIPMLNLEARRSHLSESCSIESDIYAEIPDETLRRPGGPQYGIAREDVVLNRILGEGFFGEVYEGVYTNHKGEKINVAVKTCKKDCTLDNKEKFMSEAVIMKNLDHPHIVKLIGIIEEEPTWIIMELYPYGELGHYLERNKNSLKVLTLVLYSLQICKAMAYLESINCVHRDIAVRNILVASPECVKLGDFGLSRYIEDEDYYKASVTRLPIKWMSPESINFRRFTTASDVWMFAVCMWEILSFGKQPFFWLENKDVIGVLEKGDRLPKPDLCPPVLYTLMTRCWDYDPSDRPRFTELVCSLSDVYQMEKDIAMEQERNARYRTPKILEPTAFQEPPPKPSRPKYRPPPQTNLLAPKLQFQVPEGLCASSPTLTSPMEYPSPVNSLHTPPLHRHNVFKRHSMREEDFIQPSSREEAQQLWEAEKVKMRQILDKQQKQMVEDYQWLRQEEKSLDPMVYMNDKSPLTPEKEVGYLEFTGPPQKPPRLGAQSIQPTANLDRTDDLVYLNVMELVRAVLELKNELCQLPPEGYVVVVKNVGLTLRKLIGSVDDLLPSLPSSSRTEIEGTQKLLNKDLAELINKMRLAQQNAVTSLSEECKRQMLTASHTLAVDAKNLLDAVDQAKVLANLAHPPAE
Experimental: as §1, §2

CDK5 = CDK5 (Homo sapiens, UniProt Q00535)
Chain of CDK5 (Q00535 whole entry): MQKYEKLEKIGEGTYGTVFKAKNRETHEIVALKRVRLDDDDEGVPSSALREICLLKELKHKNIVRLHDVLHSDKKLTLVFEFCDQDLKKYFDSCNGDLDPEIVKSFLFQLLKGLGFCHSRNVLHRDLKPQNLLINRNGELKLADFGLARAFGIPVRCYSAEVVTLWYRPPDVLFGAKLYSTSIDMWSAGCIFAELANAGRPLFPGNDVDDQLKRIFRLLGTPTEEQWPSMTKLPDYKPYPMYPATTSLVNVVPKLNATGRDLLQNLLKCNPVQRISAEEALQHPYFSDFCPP
Experimental: as §1, §2

Chain of ABL2 (P42684 whole entry): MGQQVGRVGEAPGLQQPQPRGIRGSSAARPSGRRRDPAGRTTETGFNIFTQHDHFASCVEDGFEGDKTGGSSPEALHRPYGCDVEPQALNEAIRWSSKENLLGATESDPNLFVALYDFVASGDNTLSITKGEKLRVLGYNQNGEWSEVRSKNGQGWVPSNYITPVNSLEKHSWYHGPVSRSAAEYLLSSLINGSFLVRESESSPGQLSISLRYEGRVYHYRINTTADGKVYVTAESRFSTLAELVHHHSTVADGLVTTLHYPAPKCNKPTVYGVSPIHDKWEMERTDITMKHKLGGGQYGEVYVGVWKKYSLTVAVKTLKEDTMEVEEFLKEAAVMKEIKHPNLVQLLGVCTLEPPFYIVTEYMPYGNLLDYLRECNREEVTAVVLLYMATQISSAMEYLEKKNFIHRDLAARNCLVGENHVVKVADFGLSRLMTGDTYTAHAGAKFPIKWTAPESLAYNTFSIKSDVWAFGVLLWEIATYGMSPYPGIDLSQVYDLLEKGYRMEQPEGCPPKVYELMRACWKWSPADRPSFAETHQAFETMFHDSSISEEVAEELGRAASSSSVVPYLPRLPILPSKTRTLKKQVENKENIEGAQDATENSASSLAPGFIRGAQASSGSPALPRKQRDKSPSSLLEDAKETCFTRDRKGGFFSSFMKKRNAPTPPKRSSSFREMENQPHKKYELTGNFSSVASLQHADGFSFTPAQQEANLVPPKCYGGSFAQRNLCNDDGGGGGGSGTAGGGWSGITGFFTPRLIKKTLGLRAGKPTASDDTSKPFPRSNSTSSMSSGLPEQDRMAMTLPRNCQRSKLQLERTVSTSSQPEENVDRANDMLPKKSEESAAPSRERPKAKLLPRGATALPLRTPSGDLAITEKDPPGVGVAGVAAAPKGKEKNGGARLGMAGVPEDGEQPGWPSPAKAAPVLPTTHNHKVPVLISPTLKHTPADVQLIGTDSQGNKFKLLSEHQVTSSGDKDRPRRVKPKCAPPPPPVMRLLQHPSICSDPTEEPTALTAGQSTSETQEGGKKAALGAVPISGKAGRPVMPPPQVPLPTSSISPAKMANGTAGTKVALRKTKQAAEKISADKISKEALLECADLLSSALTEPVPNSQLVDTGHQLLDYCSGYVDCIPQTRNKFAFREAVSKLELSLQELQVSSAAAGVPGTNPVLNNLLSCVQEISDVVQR

Av. SC comp. (ABL2; + free ponatinib): 0
Total SC comp. (ABL2; + free ponatinib): 0
Av. SC (ABL2; no competitor): 17.25
Total SC (ABL2; no competitor): 69
Av. SC comp. (LCK; + free ponatinib): 0.75
Total SC comp. (LCK; + free ponatinib): 3
Av. SC (LCK; no competitor): 98.5
Total SC (LCK; no competitor): 394
Av. SC comp. (HSPA8; + free ponatinib): 17.25
Total SC comp. (HSPA8; + free ponatinib): 69
Av. SC (HSPA8; no competitor): 29.25
Total SC (HSPA8; no competitor): 117
Av. SC comp. (MAPK14; + free ponatinib): 7.25
Total SC comp. (MAPK14; + free ponatinib): 29
Av. SC (MAPK14; no competitor): 79.25
Total SC (MAPK14; no competitor): 317
Av. SC comp. (MINK1; + free ponatinib): 0
Total SC comp. (MINK1; + free ponatinib): 0
Av. SC (MINK1; no competitor): 4
Total SC (MINK1; no competitor): 16
Av. SC comp. (YWHAB; + free ponatinib): 1
Total SC comp. (YWHAB; + free ponatinib): 4
Av. SC (YWHAB; no competitor): 7
Total SC (YWHAB; no competitor): 28
Av. SC comp. (UNC119B; + free ponatinib): 0
Total SC comp. (UNC119B; + free ponatinib): 0
Av. SC (UNC119B; no competitor): 6
Total SC (UNC119B; no competitor): 24
Av. SC comp. (PTK2B; + free ponatinib): 0
Total SC comp. (PTK2B; + free ponatinib): 0
Av. SC (PTK2B; no competitor): 32.5
Total SC (PTK2B; no competitor): 130
Av. SC comp. (CDK5; + free ponatinib): 2.75
Total SC comp. (CDK5; + free ponatinib): 11
Av. SC (CDK5; no competitor): 7.25
Total SC (CDK5; no competitor): 29
Structure (SMILES): Cc1ccc(C(=O)Nc2ccc(CN3CCN(CCCN)CC3)c(C(F)(F)F)c2)cc1C#Cc1cnc2cccnn12 [c-ponatinib]
